# Counter-ions that a name gives are not always drawn.
# Biological target: AMPK
# Test: AMPK activation, enzyme-linked immunosorbent assay
# Format: biochemical
# Conditions: Table 4, AMPK activation, ELISA
row,Compound,EC50 [nM]
1,"O=C(NC1CCN(Cc2ccc(C(F)(F)F)cc2)CC1)c1cc2ccc(OC3CCN(c4ccc(C(F)(F)F)cc4)CC3)cc2o1 [Compound 99, N-(1-(4-(trifluoromethyl)benzyl)piperidin-4-yl)-6-(1-(4-(trifluoromethyl)phenyl)piperidin-4-yloxy)benzofuran-2-carboxamide]",< 100
2,"O=C(NC1CCN(Cc2ccc(C(F)(F)F)cc2)CC1)c1cc2cc(OC3CCN(c4ccc(C(F)(F)F)cc4)CC3)ccc2o1 [Compound 100, N-(1-(4-(trifluoromethyl)benzyl)piperidin-4-yl)-5-(1-(4-(trifluoromethyl)phenyl)piperidin-4-yloxy)benzofuran-2-carboxamide]",< 100
3,"CN(C(=O)c1cc2cc(OC3CCN(c4ccc(C(F)(F)F)cc4)CC3)ccc2o1)C1CCN(C(=O)OC(C)(C)C)CC1 [Compound 102, tert-butyl 4-(N-methyl-5-(1-(4-(trifluoromethyl)phenyl)piperidin-4-yloxy)benzofuran-2-carboxamido)piperidine-1-carboxylate]",1000 to 10000
4,"CN(C(=O)c1cc2cc(OC3CCN(c4ccc(C(F)(F)F)cc4)CC3)ccc2o1)C1CCNCC1 [Compound 103, N-methyl-N-(piperidin-4-yl)-5-(1-(4-(trifluoromethyl)phenyl)piperidin-4-yloxy)benzofuran-2-carboxamide]",1000 to 10000
5,"CN(C(=O)c1cc2cc(OC3CCN(c4ccc(C(F)(F)F)cc4)CC3)ccc2o1)C1CCN(Cc2ccncc2)CC1 [Compound 104, N-methyl-N-(1-(pyridin-4-ylmethyl)piperidin-4-yl)-5-(1-(4-(trifluoromethyl)phenyl)piperidin-4-yloxy)benzofuran-2-carboxamide]",100 to 500
6,"O=C(NC1CCN(S(=O)(=O)c2cccnc2)CC1)c1cc2ccc(OC3CCN(c4ccc(C(F)(F)F)cc4)CC3)cc2o1 [Compound 106, N-(1-(pyridin-3-ylsulfonyl)piperidin-4-yl)-6-(1-(4-(trifluoromethyl)phenyl)piperidin-4-yloxy)benzofuran-2-carboxamide]",100 to 500
7,"O=C(NC1CCN(S(=O)(=O)c2cccnc2)CC1)c1cc2ccc(OC3CCN(c4ccc(OC(F)(F)F)cc4)CC3)cc2o1 [Compound 108, N-(1-(pyridin-3-ylsulfonyl)piperidin-4-yl)-6-(1-(4-(trifluoromethoxy)phenyl)piperidin-4-yloxy)benzofuran-2-carboxamide]",100 to 500
8,"CN(C(=O)c1cc2cc(OC3CCN(c4ccc(C(F)(F)F)cc4)CC3)ccc2o1)C1CCN(Cc2cccnc2)CC1 [Compound 109, N-methyl-N-(1-(pyridin-3-ylmethyl)piperidin-4-yl)-5-(1-(4-(trifluoromethyl)phenyl)piperidin-4-yloxy)benzofuran-2-carboxamide]",< 100
9,"CN(C(=O)c1cc2cc(OC3CCN(c4ccc(C(F)(F)F)cc4)CC3)ccc2o1)C1CCN(Cc2cccc(C#N)c2)CC1 [Compound 110, N-(1-(3-cyanobenzyl)piperidin-4-yl)-N-methyl-5-(1-(4-(trifluoromethyl)phenyl)piperidin-4-yloxy)benzofuran-2-carboxamide]",< 100
10,"O=C(NC1CCN(C(=O)c2ccncc2)CC1)c1cc2ccc(OC3CCN(c4ccc(C(F)(F)F)cc4)CC3)cc2o1 [Compound 112, N-(1-isonicotinoylpiperidin-4-yl)-6-(1-(4-(trifluoromethyl)phenyl)piperidin-4-yloxy)benzofuran-2-carboxamide]",< 100
11,"CC(C)(C)OC(=O)N1CCC(NC(=O)c2cc3cc(OC4CCN(Cc5ccc(C#N)cc5)CC4)ccc3o2)CC1 [Compound 113, tert-butyl 4-(5-(1-(4-cyanobenzyl)piperidin-4-yloxy)benzofuran-2-carboxamido)piperidine-1-carboxylate]",100 to 500
12,"O=C(NC1CCN(C(=O)c2ccncc2)CC1)c1cc2cc(OC3CCN(c4ccc(C(F)(F)F)cc4)CC3)ccc2o1 [Compound 115, N-(1-isonicotinoylpiperidin-4-yl)-5-(1-(4-(trifluoromethyl)phenyl)piperidin-4-yloxy)benzofuran-2-carboxamide]",< 100
13,"NC(=O)c1ccc(CN2CCC(Oc3ccc4oc(C(=O)NC5CCN(Cc6ccccc6)CC5)cc4c3)CC2)cc1 [Compound 116, N-(1-benzylpiperidin-4-yl)-5-(1-(4-carbamoylbenzyl)piperidin-4-yloxy)benzofuran-2-carboxamide]",100 to 500
14,"CN(C(=O)c1cc2cc(OC3CCN(c4ccc(C(F)(F)F)cc4)CC3)ccc2o1)C1CCN(Cc2ccccn2)CC1 [Compound 117, N-methyl-N-(1-(pyridin-2-ylmethyl)piperidin-4-yl)-5-(1-(4-(trifluoromethyl)phenyl)piperidin-4-yloxy)benzofuran-2-carboxamide]",< 100
15,"CN(C(=O)c1cc2cc(OC3CCN(c4ccc(C(F)(F)F)cc4)CC3)ccc2o1)C1CCN(Cc2ccc(C(F)(F)F)cc2)CC1 [Compound 119, N-methyl-N-(1-(4-(trifluoromethyl)benzyl)piperidin-4-yl)-5-(1-(4-(trifluoromethyl)phenyl)piperidin-4-yloxy)benzofuran-2-carboxamide]",< 100
16,"O=C(N[C@@H]1CCNC1)c1cc2cc(OC3CCN(c4ccc(C(F)(F)F)cc4)CC3)ccc2o1 [Compound 121, (R)-N-(pyrrolidin-3-yl)-5-(1-(4-(trifluoromethyl)phenyl)piperidin-4-yloxy)benzofuran-2-carboxamide]",> 50000
17,"O=C(N[C@@H]1CCN(Cc2cccnc2)C1)c1cc2cc(OC3CCN(c4ccc(C(F)(F)F)cc4)CC3)ccc2o1 [Compound 123, (R)-N-(1-(pyridin-3-ylmethyl)pyrrolidin-3-yl)-5-(1-(4-(trifluoromethyl)phenyl)piperidin-4-yloxy)benzofuran-2-carboxamide]",100 to 500
18,"O=C(N[C@@H]1CCN(Cc2ccccn2)C1)c1cc2cc(OC3CCN(c4ccc(C(F)(F)F)cc4)CC3)ccc2o1 [Compound 124, (R)-N-(1-(pyridin-2-ylmethyl)pyrrolidin-3-yl)-5-(1-(4-(trifluoromethyl)phenyl)piperidin-4-yloxy)benzofuran-2-carboxamide]",1000 to 10000
19,"CC(C)(C)OC(=O)N1CC[C@H](NC(=O)c2cc3cc(OC4CCN(Cc5ccc(Cl)cc5)CC4)ccc3o2)C1 [Compound 127, (S)-tert-butyl 3-(5-(1-(4-chlorobenzyl)piperidin-4-yloxy)benzofuran-2-carboxamido)pyrrolidine-1-carboxylate]",1000 to 10000

# Other lines, results leading:
row,EC50 [nM],Compound
1,< 100,"N#Cc1ccccc1CN1CCC(NC(=O)c2cc3ccc(OC4CCN(c5ccc(C(F)(F)F)cc5)CC4)cc3o2)CC1 [Compound 98, N-(1-(2-cyanobenzyl)piperidin-4-yl)-6-(1-(4-(trifluoromethyl)phenyl)piperidin-4-yloxy)benzofuran-2-carboxamide]"
2,< 100,"O=C(NC1CCN(Cc2cccnc2)CC1)c1cc2cc(OC3CCN(c4ccc(C(F)(F)F)cc4)CC3)ccc2o1 [Compound 101, N-(1-(pyridin-3-ylmethyl)piperidin-4-yl)-5-(1-(4-(trifluoromethyl)phenyl)piperidin-4-yloxy)benzofuran-2-carboxamide]"
3,< 100,"CN(C(=O)c1cc2cc(OC3CCN(c4ccc(C(F)(F)F)cc4)CC3)ccc2o1)C1CCN(Cc2ccc(C#N)cc2)CC1 [Compound 107, N-(1-(4-cyanobenzyl)piperidin-4-yl)-N-methyl-5-(1-(4-(trifluoromethyl)phenyl)piperidin-4-yloxy)benzofuran-2-carboxamide]"
4,100 to 500,"CN(C(=O)c1cc2cc(OC3CCN(c4ccc(C(F)(F)F)cc4)CC3)ccc2o1)C1CCN(Cc2ccccc2C#N)CC1 [Compound 111, N-(1-(2-cyanobenzyl)piperidin-4-yl)-N-methyl-5-(1-(4-(trifluoromethyl)phenyl)piperidin-4-yloxy)benzofuran-2-carboxamide]"
5,100 to 500,"N#Cc1ccc(CN2CCC(Oc3ccc4oc(C(=O)NC5CCN(Cc6ccccc6)CC5)cc4c3)CC2)cc1 [Compound 114, N-(1-benzylpiperidin-4-yl)-5-(1-(4-cyanobenzyl)piperidin-4-yloxy)benzofuran-2-carboxamide]"
6,100 to 500,"CN(C(=O)c1cc2cc(OC3CCN(c4ccc(C(F)(F)F)cc4)CC3)ccc2o1)C1CCN(C(=O)c2ccncc2)CC1 [Compound 118, N-(1-isonicotinoylpiperidin-4-yl)-N-methyl-5-(1-(4-(trifluoromethyl)phenyl)piperidin-4-yloxy)benzofuran-2-carboxamide]"
7,1000 to 10000,"CC(C)(C)OC(=O)N1CC[C@@H](NC(=O)c2cc3cc(OC4CCN(c5ccc(C(F)(F)F)cc5)CC4)ccc3o2)C1 [Compound 120, (R)-tert-butyl 3-(5-(1-(4-(trifluoromethyl)phenyl)piperidin-4-yloxy)benzofuran-2-carboxamido)pyrrolidine-1-carboxylate]"
8,100 to 500,"O=C(N[C@@H]1CCN(Cc2ccncc2)C1)c1cc2cc(OC3CCN(c4ccc(C(F)(F)F)cc4)CC3)ccc2o1 [Compound 122, (R)-N-(1-(pyridin-4-ylmethyl)pyrrolidin-3-yl)-5-(1-(4-(trifluoromethyl)phenyl)piperidin-4-yloxy)benzofuran-2-carboxamide]"
9,1000 to 10000,"O=C(N[C@@H]1CCN(C(=O)c2ccncc2)C1)c1cc2cc(OC3CCN(c4ccc(C(F)(F)F)cc4)CC3)ccc2o1 [Compound 125, (R)-N-(1-isonicotinoylpyrrolidin-3-yl)-5-(1-(4-(trifluoromethyl)phenyl)piperidin-4-yloxy)benzofuran-2-carboxamide]"
10,1000 to 10000,"O=C(N[C@@H]1CCN(S(=O)(=O)c2cccnc2)C1)c1cc2cc(OC3CCN(c4ccc(C(F)(F)F)cc4)CC3)ccc2o1 [Compound 126, (R)-N-(1-(pyridin-3-ylsulfonyl)pyrrolidin-3-yl)-5-(1-(4-(trifluoromethyl)phenyl)piperidin-4-yloxy)benzofuran-2-carboxamide]"
11,> 50000,"O=C(N[C@H]1CCNC1)c1cc2cc(OC3CCN(Cc4ccc(Cl)cc4)CC3)ccc2o1 [Compound 128, (S)-5-(1-(4-chlorobenzyl)piperidin-4-yloxy)-N-(pyrrolidin-3-yl)benzofuran-2-carboxamide]"

# Same assay, conditions: Table 4, AMPK activation, ELISA; formate salt
row,EC50 [nM],Compound
1,< 100,"O=C(NC1CCN(Cc2ccncc2)CC1)c1cc2cc(OC3CCN(c4ccc(C(F)(F)F)cc4)CC3)ccc2o1 [Compound 105, N-(1-(pyridin-4-ylmethyl)piperidin-4-yl)-5-(1-(4-(trifluoromethyl)phenyl)piperidin-4-yloxy)benzofuran-2-carboxamide, formate salt]"
